Laboratory results from patent US20160047748A1, “FLUORESCENT PROBE” (THE UNIVERSITY OF TOKYO, priority 2013, published 2016).

Columns and labels:
[1] = Optical characteristics, Zn^2+ addition experiment; assay type: physicochemical; details: for Φf1: fluorescence quantum yield
Protocol: (§1) The optical characteristics, absorbance spectra, and fluorescence spectra of the resulting ZnTM-1 depending on pHs are shown in FIG. 1. The Zn^2+ addition experiment was carried out by adding ZnSO4 to a solution obtained by adding ZnTM-1 (1 μM) in a buffer of 0.1M HEPES (pH 7.4) containing 15% DMSO. pKa was determined by biphasic fitting using the absorbance at the absorbance maximum wavelength. EDTA (100 μM) was added in order to eliminate the effect of trace metal ions during the measurement of quantum yield when Zn^2+ had not been added, and then measurement was carried out.

[2] = tested on: HeLa cells; test: Cell imaging using ZnTM-1; assay type: cell-based; details: 10 μM, 30 min at 37° C., HBSS 1% DMSO, ZnSO4 (50 μM)/pyrithione (5 μM), then TPEN (100 μM)
Protocol: Cell imaging was carried out using ZnTM-1. HeLa cells were incubated for 30 minutes at 37° C. together with 10 μM of ZnTM-1 in a Hank's balanced salt solution (HBSS) containing 1% DMSO. The mixture was washed once using HBSS, then HBSS was added and the cells were observed using an epifluorescence microscope IX-71 (Olympus) with an excitation wavelength of 565 to 585 nm and a fluorescence wavelength of 600 to 690 nm. The observation was carried out in every 30 seconds, ZnSO4 (50 μM) and pyrithione (5 μM), which is an ionophore, were added after 2 minutes and 30 seconds from the beginning of observation, and TPEN (100 μM), which is a cell-membrane-permeating zinc chelator, was added after 6 minutes from the beginning of observation.

[3] = physchem; assay type: physicochemical
Protocol: as §1, with “pH-induced changes were measured using” for “Zn^2+ addition experiment was carried out by adding ZnSO4 to a solution obtained by adding”, “sodium phosphate” for “HEPES (pH 7.4)”

[4] = tested on: HeLa cells; test: Ca^2+-imaging of living cells; assay type: cell-based
Protocol: Ca^2+-imaging of living cells was carried out using CaTM-3-AM. In order to study the utility thereof, a comparison was made with CaTM-2-AM(N-[2-[(acetyloxy)]-2-oxoethyl]amino]-N-[2-[2-[2-[bis[2-[(acetyloxy)methoxy]-2-oxoethyl]amino]-5-[[4-(1,8-dichloro-2,9-dihydro-7-hydroxy-9,9-dimethyl-2-oxo-9-silaanthracen-10-yl)-3-methylbenzoyl]amino]phenoxy]ethoxy]phenyl]-glycine(acetyloxy)methyl ester), which has a methyl group at position 2 of the benzene ring instead of a carboxy group. HeLa cells were incubated for 30 minutes at 37° C. together with 3 μM of CaTM-2-AM or CaTM-3-AM in a Hank's balanced salt solution (HBSS) containing 0.03% DMSO. The cells were washed three times using HBSS, then HBSS was added and the cells were observed using a confocal microscope SP5 (Leica) with an excitation wavelength of 590 nm and a fluorescence wavelength of 610 to 680 nm.
Ca^2+ imaging was carried out during stimulation by histamine and ionomycin using cells to which CaTM-3-AM had been added. Histamine hydrochloride (1 μM) was added after 1 minute from the beginning of observation, and ionomycin (5 μM) was added after 4 minutes from the beginning of observation.

[5] = ZnTM-1 1 μM, 0.1M HEPES (pH 7.4) containing 15% DMSO, Zn^2+ not added

| Structure (SMILES) | λabs (nm) [1, 5] [nm] | λf1 (nm) [1, 5] [nm] | Φf1 ([1]; + 10 eq Zn^2+ (ZnSO4), 0.1M HEPES (pH 7.4) containing 15% DMSO) | Φf1 ([1]; Zn^2+ not added, EDTA (100 μM) added) | Cell uptake and function as Zn^2+-detecting fluorescent probe [2] | pKa [3] | Brightness of fluorescence image ([4]; HeLa cells, 3 μM, 30 min at 37° C., HBSS 0.03% DMSO, excitation 590 nm, fluorescence 610 to 680 nm) | Quantity of fluorescent probe taken into cells ([4]; HeLa cells, 3 μM, 30 min at 37° C., compared with CaTM-2-AM) | Detection of variation in intracellular Ca^2+ during stimulation ([4]; histamine hydrochloride (1 μM) after 1 minute, ionomycin (5 μM) after 4 minutes) |
| --- | --- | --- | --- | --- | --- | --- | --- | --- | --- |
| C[Si]1(C)C2=C(F)C(=O)C=CC2=C(c2ccc(C(=O)Nc3ccc(NCCN(Cc4ccccn4)Cc4ccccn4)cc3)cc2C(=O)O)c2ccc(O)c(F)c21 [ZnTM-1, 5-[[[4-[[2-[bis(2-pyridinylmethyl)amino]ethyl]amino]phenyl]amino]carbonyl]-2-(1,8-difluoro-2,9-dihydro-7-hydroxy-9,9-dimethyl-2-oxo-9-silaanthracen-10-yl)benzoic acid] | 589 | 601 | 0.281 | 0.062 | is taken into the cell and functions effectively as a Zn^2+-detecting fluorescent probe | 7.2 | – | – | – |
| CC(=O)OCOC(=O)CN(CC(=O)OCOC(C)=O)c1ccccc1OCCOc1cc(NC(=O)c2ccc(C3=C4C=CC(=O)C(Cl)=C4[Si](C)(C)c4c3ccc(O)c4Cl)c(C(=O)O)c2)ccc1N(CC(=O)OCOC(C)=O)CC(=O)OCOC(C)=O [CaTM-3-AM, 5-[[[4-[bis[2-[(acetyloxy)methoxy]-2-oxoethyl]amino]-5-[2-[2-[bis[2-[(acetyloxy)methoxy]-2-oxoethyl]amino]phenoxy]ethoxy]-phenyl]amino]carbonyl]-2-(1,8-dichloro-2,9-dihydro-7-hydroxy-9,9-dimethyl-2-oxo-9-silaanthracen-10-yl)-benzoic acid] | – | – | – | – | – | – | brighter fluorescence image than does CaTM-2-AM | a larger quantity of fluorescent probes is taken into cells | can be accurately ascertained |
